Measured values from patent US7332486B2, “Phosphodiesterase 4 inhibitors” (Memory Pharmaceuticals Corp., priority 2002, dated 2008).
Structures can show the parent of a compound that is named as a salt.

Tests used:
rats [1] = test: Passive avoidance in rats, an in vivo test for learning and memory; design: species or system rat; settings: MK-801 0.1 mg/kg pretreatment, compared to the vehicle, p<0.001, 24 hours after electric shock
Protocol: The test was performed as previously described (Zhang, H.-T., Crissman, A. M., Dorairaj, N. R., Chandler, L. J., and O'Donnell, J. M., Neuropsychopharmacology, 2000, 23, 198-204.). The apparatus (Model E10-16SC, Coulbourn Instruments, Allentown, Pa.) consisted of a two-compartment chamber with an illuminated compartment connected to a darkened compartment by a guillotine door. The floor of the darkened compartment consisted of stainless steel rods through which an electric foot-shock could be delivered from a constant current source. All experimental groups were first habituated to the apparatus the day before the start of the experiment. During the training, the rat (Male Spraque-Dawley (Harlan) weighing 250 to 350 g) was placed in the illuminated compartment facing away from the closed guillotine door for 1 minute before the door was raised. The latency for entering the darkened compartment was recorded. After the rat entered the darkened compartment, the door was closed and a 0.5 mA electric shock was administered for 3 seconds. […] The latency for entering the darkened compartment was recorded for up to 180 seconds, at which time the trial was terminated.
(§1) All data were analyzed by analyses of variance (ANOVA); individual comparisons were made using Kewman-Keuls tests. […]

rats [2] = test: Radial arm maze task in rats, an in vivo test for learning and memory; design: species or system rat; settings: MK-801 0.1 mg/kg, i.p., compared to control, p<0.01
Protocol: The test was performed as previously described (Zhang, H.-T., Crissman, A. M., Dorairaj, N. R., Chandler, L. J., and O'Donnell, J. M., Neuropsychopharmacology, 2000, 23, 198-204.). Five days after initial housing, rats (male Spraque-Dawley (Harlan) weighing 250 to 350 g) were placed in the eight-arm radial maze (each arm was 60×10×12 cm high; the maze was elevated 70 cm above the floor) for acclimation for two days. Rats were then placed individually in the center of the maze for 5 minutes with food pellets placed close to the food wells, and then, the next day, in the wells at the end of the arms; 2 sessions a day were conducted. Next, four randomly selected arms were then baited with one pellet of food each. The rat was restricted to the center platform (26 cm in diameter) for 15 seconds and then allowed to move freely throughout the maze until it collected all pellets of food or 10 minutes passed, whichever came first. Four parameters were recorded: 1) working memory errors, i.e., entries into baited arms that had already been visited during the same trial; 2) reference memory errors, i.e., entries into unbaited arms; 3) total arm entries; and 4) the test duration (seconds), i.e., the time spent in the collection of all the pellets in the maze. […]
as §1

[3] = Solubility of the mesylate salt in H2O; assay type: physicochemical
Protocol: To obtain the methansulphonate salt (mesylate salt), 4 ml of 0.1N CH3SO3H in EtOAc was added to a solution of 145 mg (0.4 mmol) 6-cyclopropylamino-9-(2-fluorobenzyl)-2-trifluoromethylpurine in EtOAc. Then, 1 ml of hexane was added to a warm solution and the resultant mixture was allowed to crystallize (within a refrigerator). The solid was collected to give 148 mg of the mesylate salt. […] M.p. 167.5-169.0 C; m.p. 114-118 C for free base.

SMILES | latency for entering the darkened compartment (retention test) (rats [1]) | frequency of reference memory errors (rats [2]) | frequency of working memory errors (rats [2]) | solubility in H2O [3]
C[C@]12N[C@H](Cc3ccccc31)c1ccccc12 [MK-801] | markedly reduced | increased | increased | 
Fc1ccccc1Cn1cnc2c(NC3CC3)nc(C(F)(F)F)nc21 [Example 4 mesylate salt, 6-cyclopropylamino-9-(2-fluorobenzyl)-2-trifluoromethylpurine] |  |  |  | relatively insoluble
